Data reported in patent publication US20260109707A1, “HETEROBIFUNCTIONAL COMPOUNDS AND METHODS OF TREATING DISEASE” (Halda Therapeutics OpCo. Inc., priority 2022, published 2026).
Like-named read-outs stand apart in the source and are kept apart here.

Assays:
[1] = system: T-Rex 293 cell line SC3 cells having increased expression of androgen receptor protein due to exposure to doxycycline; test: Cellular growth inhibition assay, T-Rex 293 SC3 cells with doxycycline (CellTiter-Glo, 72 hours); type: cell-based; conditions: T-Rex 293 SC3 cells with increased androgen receptor expression due to doxycycline (10 ng/mL)
Method in brief: (§1)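 Doxycycline (10 ng/mL) was either included or omitted to toggle wild-type androgen receptor expression in SC3 cells, a T-Rex 293 clone, grown in stripped-serum, phenol red-free medium. After 72 hours with compound, viable cells were quantified by CellTiter-Glo 2.0.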

VCaP cells = test: Cellular growth inhibition assay for VCaP cells (CellTiter-Glo, 72 hours); type: cell-based, human
Method in brief: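 Luminescent viability signal after 72 h of compound exposure gave GI50 values by four-parameter nonlinear regression. Compounds were added in 0.5% DMSO to cells plated 24 h earlier at 5000/well in DMEM containing 10% FBS.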

[2] = system: T-Rex 293 cell line SC3 cells lacking increased expression of androgen receptor protein; test: Cellular growth inhibition assay, T-Rex 293 SC3 cells without doxycycline (CellTiter-Glo, 72 hours); type: cell-based; conditions: T-Rex 293 cell line SC3 cells not exposed to doxycycline (lacking increased androgen receptor expression)
Method in brief: as §1

T47D cells = test: Cellular growth inhibition assay for T47D cells (CellTiter-Glo, 72 hours); type: cell-based, human; conditions: 72 hours treatment
Method in brief: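 Luminescence from CellTiter-Glo 2.0 after 72 h of compound exposure gives the viability signal. Cells grew in insulin-supplemented (0.2 units/mL) DMEM with 10% FBS and were treated one day after seeding at 0.5% DMSO. GI50 values come from four-parameter nonlinear regression.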

| SMILES | GI50 ([1]; 72 h) [nM] | GI50 (VCaP cells; Homo sapiens, VCaP, 72 h) [nM] | GI50 ([2]; 72 h) [nM] | GI50 (T47D cells; Homo sapiens, T47D, 72 h) [nM] | GI50 (VCaP cells) [nM] | GI50 [2] [nM] | GI50 (T47D cells) [nM] | GI50 [1] [nM] |
| --- | --- | --- | --- | --- | --- | --- | --- | --- |
| CC1=NN=C2C1c1sc(C)c(C)c1C(c1ccc(C#CC3C4CN(c5ccc(C(=O)N[C@H]6CC[C@H](Oc7ccc(C#N)c(Cl)c7)CC6)nn5)CC34)cc1)=N[C@H]2Cc1ncco1 (some centres unmarked) [I-407] | > 3000 | < 500 | > 3000 | > 3000 | – | – | – | – |
| CC1=NN=C2C1c1sc(C)c(C)c1C(c1ccc(C#CC3C4CN(c5ccc(C(=O)N[C@H]6CC[C@H](Oc7ccc(C#N)c(Cl)c7)CC6)nn5)CC34)cc1)=N[C@@H]2Cc1ncco1 (some centres unmarked) [I-408] | < 500 | < 500 | < 500 | < 500 | – | – | – | – |
| CC1=NN=C2C1c1sc(C)c(C)c1C(c1ccc(C3CCC4(CC3)CCN(c3ccc(C(=O)N[C@H]5CC[C@H](Oc6ccc(C#N)c(Cl)c6)CC5)nn3)CC4)cc1)=N[C@H]2Cc1ncco1 (some centres unmarked) [I-409] | > 3000 | > 3000 | > 3000 | > 3000 | – | – | – | – |
| CC1=NN=C2C1c1sc(C)c(C)c1C(c1ccc(C3CCC4(CC3)CCN(c3ccc(C(=O)N[C@H]5CC[C@H](Oc6ccc(C#N)c(Cl)c6)CC5)nn3)CC4)cc1)=N[C@@H]2Cc1ncco1 (some centres unmarked) [I-410] | < 500 | < 500 | < 500 | < 500 | – | – | – | – |
| Cc1sc2c(c1C)C(c1ccc(CCC[C@@H]3CCCN(c4ccc(C(=O)N[C@H]5CC[C@H](Oc6ccc(C#N)c(Cl)c6)CC5)nn4)CC3)cc1)=N[C@@H](Cc1ncco1)c1nnc(C)n1-2 [I-411] | < 500 | < 500 | < 500 | < 500 | – | – | – | – |
| Cc1sc2c(c1C)C(c1ccc(-c3ccc(C4CC5(C4)CN(c4ccc(C(=O)N[C@H]6CC[C@H](Oc7ccc(C#N)c(Cl)c7)CC6)nn4)C5)cc3)cc1)=N[C@@H](Cc1ncco1)c1nnc(C)n1-2 [I-412] | < 500 | 500 to 1500 | < 500 | < 500 | – | – | – | – |
| Cc1sc2c(c1C)C(c1ccc(N3CCN(C4CCN(c5ccc(C(=O)N[C@H]6CC[C@H](Oc7ccc(C#N)c(Cl)c7)CC6)nn5)CC4)C3=O)cc1)=NC(Cc1ncco1)c1nnc(C)n1-2 (some centres unmarked) [I-413] | < 500 | – | – | – | 1500 to 3000 | > 3000 | 1500 to 3000 | – |
| Cc1sc2c(c1C)C(c1ccc(N3CCN(C4CCN(c5ccc(C(=O)N[C@H]6CC[C@H](Oc7ccc(C#N)c(Cl)c7)CC6)nn5)CC4)C3=O)cc1)=NC(Cc1ncco1)c1nnc(C)n1-2 (some centres unmarked) [I-414] | – | – | – | – | < 500 | < 500 | < 500 | < 500 |
| Cc1sc2c(c1C)C(c1ccc(N3CCC4(CC3)CC(Cc3ccc(C(=O)N[C@H]5CC[C@H](Oc6ccc(C#N)c(Cl)c6)CC5)nn3)C4)cc1)=NC(Cc1ncco1)c1nnc(C)n1-2 (some centres unmarked) [I-415] | < 500 | < 500 | – | 500 to 1500 | – | > 3000 | – | – |
| Cc1sc2c(c1C)C(c1ccc(N3CCC4(CC3)CC(Cc3ccc(C(=O)N[C@H]5CC[C@H](Oc6ccc(C#N)c(Cl)c6)CC5)nn3)C4)cc1)=NC(Cc1ncco1)c1nnc(C)n1-2 (some centres unmarked) [I-416] | – | – | – | – | < 500 | 500 to 1500 | < 500 | < 500 |
| Cc1sc2c(c1C)C(c1ccc(OC3CC4(CCN(c5ccc(C(=O)N[C@H]6CC[C@H](Oc7ccc(C#N)c(Cl)c7)CC6)nn5)CC4)C3)cc1)=NC1(CC1)c1nnc(C)n1-2 [I-417] | < 500 | > 3000 | > 3000 | 500 to 1500 | – | – | – | – |
| Cc1sc2c(c1C)C(c1ccc(C#CC3CC4(C3)CN(c3ccc(C(=O)N[C@H]5CC[C@H](Oc6ccc(C#N)c(Cl)c6)CC5)nn3)C4)cc1)=NC1(CC1)c1nnc(C)n1-2 [I-418] | < 500 | < 500 | < 500 | < 500 | – | – | – | – |
| Cc1sc2c(c1C)C(c1ccc(C#CC3CC4(CCCN(c5ccc(C(=O)NC6CCC(Oc7ccc(C#N)c(Cl)c7)CC6)nn5)C4)C3)cc1)=NCc1nnc(C)n1-2 (centres unmarked) [I-419] | < 500 | < 500 | > 3000 | < 500 | – | – | – | – |
| Cc1sc2c(c1C)C(c1ccc(C#CC3CC4(CCCN(c5ccc(C(=O)N[C@H]6CC[C@H](Oc7ccc(C#N)c(Cl)c7)CC6)nn5)C4)C3)cc1)=NCc1nnc(C)n1-2 (some centres unmarked) [I-420] | < 500 | < 500 | > 3000 | 1500 to 3000 | – | – | – | – |
| Cc1sc2c(c1C)C(c1ccc(C#CC3CC4(C3)CN(c3ccc(C(=O)N[C@H]5CC[C@H](Oc6ccc(C#N)c(Cl)c6)CC5)nn3)C4)cc1)=NCc1nnc(C)n1-2 [I-421] | < 500 | < 500 | < 500 | 500 to 1500 | – | – | – | – |
| Cc1sc2c(c1C)C(c1ccc(N3CCC4(CCCN(c5ccc(C(=O)N[C@H]6CC[C@H](Oc7ccc(C#N)c(Cl)c7)CC6)nn5)C4)CC3)cc1)=NCc1nnc(C)n1-2 [I-422] | < 500 | < 500 | > 3000 | 500 to 1500 | – | – | – | – |
| Cc1sc2c(c1C)C(c1ccc(C(C)(C)C3CC4(CCCN(c5ccc(C(=O)N[C@H]6CC[C@H](Oc7ccc(C#N)c(Cl)c7)CC6)nn5)C4)C3)cc1)=N[C@@H](C)c1nnc(C)n1-2 (some centres unmarked) [I-423] | < 500 | > 3000 | 1500 to 3000 | 500 to 1500 | – | – | – | – |
| Cc1sc2c(c1C)C(c1ccc(OCC3CC4(CCCN(c5ccc(C(=O)N[C@H]6CC[C@H](Oc7ccc(C#N)c(Cl)c7)CC6)nn5)C4)C3)nc1)=N[C@@H](C)c1nnc(C)n1-2 (some centres unmarked) [I-424] | < 500 | < 500 | – | 500 to 1500 | – | > 3000 | – | – |
| Cc1sc2c(c1C)C(c1ccc(OCC3CC4(CCCN(c5ccc(C(=O)N[C@H]6CC[C@H](Oc7ccc(C#N)c(Cl)c7)CC6)nn5)C4)C3)nc1)=N[C@@H](C)c1nnc(C)n1-2 (some centres unmarked) [I-425] | – | – | – | – | < 500 | 500 to 1500 | 500 to 1500 | < 500 |
| Cc1sc2c(c1C)C(c1ccc(C#CC3CC4(C3)CN(c3ccc(C(=O)N[C@H]5CC[C@H](Oc6ccc(C#N)c(Cl)c6)CC5)nn3)C4)nc1)=N[C@@H](C)c1nnc(C)n1-2 [I-426] | < 500 | < 500 | < 500 | 500 to 1500 | – | – | – | – |
| Cc1sc2c(c1C)C(c1ccc(N3CCC4(CCCN(c5ccc(C(=O)N[C@H]6CC[C@H](Oc7ccc(C#N)c(Cl)c7)CC6)nn5)C4)CC3)cc1)=N[C@@H](C)c1nnc(C)n1-2 [I-427] | < 500 | < 500 | – | – | – | 500 to 1500 | 500 to 1500 | – |
| Cc1sc2c(c1C)C(c1ccc(N3CCC4(CCCN(c5ccc(C(=O)N[C@H]6CC[C@H](Oc7ccc(C#N)c(Cl)c7)CC6)nn5)C4)CC3)nc1)=N[C@@H](C)c1nnc(C)n1-2 [I-428] | < 500 | < 500 | > 3000 | 500 to 1500 | – | – | – | – |
| Cc1sc2c(c1C)C(c1ccc(N3CCC4(CCCN(c5ccc(C(=O)N[C@H]6CC[C@H](Oc7ccc(C#N)c(Cl)c7)CC6)nn5)C4)CC3)cc1)=N[C@@H](C)c1nnc(C)n1-2 [I-429] | – | – | – | – | < 500 | > 3000 | > 3000 | < 500 |
| Cc1sc2c(c1C)C(c1ccc(N3CCC4(CC3)CCN(c3ccc(C(=O)N[C@H]5CC[C@H](Oc6ccc(C#N)c(Cl)c6)CC5)nn3)C4)cc1)=N[C@@H](C)c1nnc(C)n1-2 [I-430] | – | – | – | – | < 500 | < 500 | < 500 | < 500 |
| Cc1sc2c(c1C)C(c1ccc(OC3CC4(CCN(c5ccc(C(=O)N[C@H]6CC[C@H](Oc7ccc(C#N)c(Cl)c7)CC6)nn5)CC4)C3)nc1)=N[C@@H](C)c1nnc(C)n1-2 [I-433] | < 500 | – | – | 500 to 1500 | > 3000 | 500 to 1500 | – | – |
| Cc1sc2c(c1C)C(c1ccc(N3CC(C4CCN(c5ccc(C(=O)N[C@H]6CC[C@H](Oc7ccc(C#N)c(Cl)c7)CC6)nn5)CC4)C3)cc1)=N[C@@H](C)c1nnc(C)n1-2 [I-434] | < 500 | < 500 | < 500 | 500 to 1500 | – | – | – | – |
